Test results reported in ChEMBL document CHEMBL5532735, “Novel Furopyridine and Furopyrimidine Compounds as PI4K Inhibitors for Treating Malaria and Viral Infection” (ACS Med Chem Lett, 2024).

Each molecule was assayed on Plasmodium falciparum (assay: Antimalarial activity against Plasmodium falciparum assessed as inhibition of parasite growth by [3H]hypoxanthine incorporation assay).
Type: functional, organism-based

Row | Structure (SMILES) | IC50 [nM]
1 | Cn1cc(-c2cc3nccc(-c4cccc(S(C)(=O)=O)c4)c3o2)ccc1=O | < 10
2 | CC(C)(O)c1cc(-c2ccnc3cc(-c4ccc(S(C)(=O)=O)cc4)oc23)ccn1 | < 10
3 | CC(C)(O)c1cccc(-c2ncnc3cc(-c4ccc(S(C)(=N)=O)cc4)oc23)c1F (stereo unspecified) | < 10
4 | CS(=O)(=O)c1ccc(-c2cc3nccc(-c4cccc(C5(O)CCC(F)(F)CC5)c4)c3o2)cn1 | < 10
5 | CC(C)(O)c1cccc(-c2ncnc3cc(-c4ccc(S(C)(=O)=O)cc4)oc23)c1F | < 10
6 | CS(=O)(=O)c1ccc(-c2cc3nccc(-c4cccc(C5(O)CCC5)c4)c3o2)cc1 | < 10
